Test results published in ChEMBL document CHEMBL2311281, “Novel berberine triazoles: synthesis, antimicrobial evaluation and competitive interactions with metal ions to human serum albumin” (Bioorg Med Chem Lett, 2013).
Converted amounts (≈) assume the structure as drawn.

Test system: Staphylococcus aureus
Experiment: Antibacterial activity against Staphylococcus aureus ATCC 25923 by two fold serial dilution method
Type: functional

SMILES | MIC
Fc1cccc(CN(CCBr)CCn2cncn2)c1 | 64 µg/mL (≈ 196 µM)
COc1ccc2cc3[n+](cc2c1OCCN(CCn1cncn1)Cc1ccccc1F)CCc1cc2c(cc1-3)OCO2.[Cl-] | 4 µg/mL
COc1ccc2cc3[n+](cc2c1OCCN(CCn1cncn1)Cc1ccc(Cl)cc1Cl)CCc1cc2c(cc1-3)OCO2.[Cl-] | 8 µg/mL
Fc1ccc(CN(CCBr)CCn2cncn2)c(F)c1 | 64 µg/mL (≈ 185 µM)
COc1ccc2cc3[n+](cc2c1OCCN(CCn1cncn1)Cc1ccc(Cl)c(Cl)c1)CCc1cc2c(cc1-3)OCO2.[Cl-] | 8 µg/mL
Clc1ccccc1CN(CCBr)CCn1cncn1 | 128 µg/mL (≈ 372 µM)
COc1ccc2cc3[n+](cc2c1OCCN(CCn1cncn1)Cc1cccc(Cl)c1)CCc1cc2c(cc1-3)OCO2.[Cl-] | 8 µg/mL
COc1ccc2cc3[n+](cc2c1OCCN(CCn1cncn1)Cc1ccc(Cl)cc1)CCc1cc2c(cc1-3)OCO2.[Cl-] | 16 µg/mL
COc1ccc2cc3[n+](cc2c1OC)CCc1cc2c(cc1-3)OCO2 [BERBERINE] | 512 µg/mL

Test system: Staphylococcus aureus
Experiment: Potency index, ratio of MIC for berberine to MIC compound against methicillin-resistant Staphylococcus aureus N315 by two fold serial dilution method
Type: functional

SMILES | Ratio
COc1ccc2cc3[n+](cc2c1OCCN(CCn1cncn1)Cc1ccccc1F)CCc1cc2c(cc1-3)OCO2.[Cl-] | 16
COc1ccc2cc3[n+](cc2c1OCCN(CCn1cncn1)Cc1ccc(Cl)cc1Cl)CCc1cc2c(cc1-3)OCO2.[Cl-] | 16

Test system: Staphylococcus aureus
Experiment: Potency index, ratio of MIC for chloromycin to MIC compound against methicillin-resistant Staphylococcus aureus N315 by two fold serial dilution method
Type: functional

SMILES | Ratio
COc1ccc2cc3[n+](cc2c1OCCN(CCn1cncn1)Cc1ccccc1F)CCc1cc2c(cc1-3)OCO2.[Cl-] | 2
COc1ccc2cc3[n+](cc2c1OCCN(CCn1cncn1)Cc1ccc(Cl)cc1Cl)CCc1cc2c(cc1-3)OCO2.[Cl-] | 2

Test system: Micrococcus luteus
Experiment: Antibacterial activity against Micrococcus luteus ATCC 4698 by two fold serial dilution method
Type: functional

SMILES | MIC
Fc1cccc(CN(CCBr)CCn2cncn2)c1 | 64 µg/mL (≈ 196 µM)
COc1ccc2cc3[n+](cc2c1OCCN(CCn1cncn1)Cc1ccccc1F)CCc1cc2c(cc1-3)OCO2.[Cl-] | 8 µg/mL
COc1ccc2cc3[n+](cc2c1OCCN(CCn1cncn1)Cc1ccc(Cl)cc1Cl)CCc1cc2c(cc1-3)OCO2.[Cl-] | 16 µg/mL
Fc1ccc(CN(CCBr)CCn2cncn2)c(F)c1 | 32 µg/mL (≈ 92.7 µM)
COc1ccc2cc3[n+](cc2c1OCCN(CCn1cncn1)Cc1ccc(Cl)c(Cl)c1)CCc1cc2c(cc1-3)OCO2.[Cl-] | 16 µg/mL
Clc1ccccc1CN(CCBr)CCn1cncn1 | 64 µg/mL (≈ 186 µM)
COc1ccc2cc3[n+](cc2c1OCCN(CCn1cncn1)Cc1cccc(Cl)c1)CCc1cc2c(cc1-3)OCO2.[Cl-] | 32 µg/mL
COc1ccc2cc3[n+](cc2c1OCCN(CCn1cncn1)Cc1ccc(Cl)cc1)CCc1cc2c(cc1-3)OCO2.[Cl-] | 16 µg/mL
COc1ccc2cc3[n+](cc2c1OC)CCc1cc2c(cc1-3)OCO2 [BERBERINE] | > 512 µg/mL

Test system: Escherichia coli
Experiment: Antibacterial activity against Escherichia coli DH52 by two fold serial dilution method
Type: functional

SMILES | MIC
Fc1cccc(CN(CCBr)CCn2cncn2)c1 | 64 µg/mL (≈ 196 µM)
COc1ccc2cc3[n+](cc2c1OCCN(CCn1cncn1)Cc1ccccc1F)CCc1cc2c(cc1-3)OCO2.[Cl-] | 4 µg/mL
COc1ccc2cc3[n+](cc2c1OCCN(CCn1cncn1)Cc1ccc(Cl)cc1Cl)CCc1cc2c(cc1-3)OCO2.[Cl-] | 4 µg/mL
Fc1ccc(CN(CCBr)CCn2cncn2)c(F)c1 | 32 µg/mL (≈ 92.7 µM)
COc1ccc2cc3[n+](cc2c1OCCN(CCn1cncn1)Cc1ccc(Cl)c(Cl)c1)CCc1cc2c(cc1-3)OCO2.[Cl-] | 8 µg/mL
Clc1ccccc1CN(CCBr)CCn1cncn1 | 64 µg/mL (≈ 186 µM)
COc1ccc2cc3[n+](cc2c1OCCN(CCn1cncn1)Cc1cccc(Cl)c1)CCc1cc2c(cc1-3)OCO2.[Cl-] | 8 µg/mL
COc1ccc2cc3[n+](cc2c1OCCN(CCn1cncn1)Cc1ccc(Cl)cc1)CCc1cc2c(cc1-3)OCO2.[Cl-] | 16 µg/mL
COc1ccc2cc3[n+](cc2c1OC)CCc1cc2c(cc1-3)OCO2 [BERBERINE] | > 512 µg/mL

Test system: Bacillus subtilis
Experiment: Antibacterial activity against Bacillus subtilis by two fold serial dilution method
Type: functional

SMILES | MIC
Fc1cccc(CN(CCBr)CCn2cncn2)c1 | 256 µg/mL (≈ 782 µM)
COc1ccc2cc3[n+](cc2c1OCCN(CCn1cncn1)Cc1ccccc1F)CCc1cc2c(cc1-3)OCO2.[Cl-] | 8 µg/mL
COc1ccc2cc3[n+](cc2c1OCCN(CCn1cncn1)Cc1ccc(Cl)cc1Cl)CCc1cc2c(cc1-3)OCO2.[Cl-] | 8 µg/mL
Fc1ccc(CN(CCBr)CCn2cncn2)c(F)c1 | 256 µg/mL (≈ 742 µM)
COc1ccc2cc3[n+](cc2c1OCCN(CCn1cncn1)Cc1ccc(Cl)c(Cl)c1)CCc1cc2c(cc1-3)OCO2.[Cl-] | 8 µg/mL
Clc1ccccc1CN(CCBr)CCn1cncn1 | 256 µg/mL (≈ 745 µM)
COc1ccc2cc3[n+](cc2c1OCCN(CCn1cncn1)Cc1cccc(Cl)c1)CCc1cc2c(cc1-3)OCO2.[Cl-] | 16 µg/mL
COc1ccc2cc3[n+](cc2c1OCCN(CCn1cncn1)Cc1ccc(Cl)cc1)CCc1cc2c(cc1-3)OCO2.[Cl-] | 8 µg/mL
COc1ccc2cc3[n+](cc2c1OC)CCc1cc2c(cc1-3)OCO2 [BERBERINE] | > 512 µg/mL

Test system: Proteus vulgaris
Experiment: Antibacterial activity against Proteus vulgaris by two fold serial dilution method
Type: functional

SMILES | MIC
Fc1cccc(CN(CCBr)CCn2cncn2)c1 | 256 µg/mL (≈ 782 µM)
COc1ccc2cc3[n+](cc2c1OCCN(CCn1cncn1)Cc1ccccc1F)CCc1cc2c(cc1-3)OCO2.[Cl-] | 4 µg/mL
COc1ccc2cc3[n+](cc2c1OCCN(CCn1cncn1)Cc1ccc(Cl)cc1Cl)CCc1cc2c(cc1-3)OCO2.[Cl-] | 8 µg/mL
Fc1ccc(CN(CCBr)CCn2cncn2)c(F)c1 | 128 µg/mL (≈ 371 µM)
COc1ccc2cc3[n+](cc2c1OCCN(CCn1cncn1)Cc1ccc(Cl)c(Cl)c1)CCc1cc2c(cc1-3)OCO2.[Cl-] | 8 µg/mL
Clc1ccccc1CN(CCBr)CCn1cncn1 | 512 µg/mL (≈ 1490 µM)
COc1ccc2cc3[n+](cc2c1OCCN(CCn1cncn1)Cc1cccc(Cl)c1)CCc1cc2c(cc1-3)OCO2.[Cl-] | 32 µg/mL
COc1ccc2cc3[n+](cc2c1OCCN(CCn1cncn1)Cc1ccc(Cl)cc1)CCc1cc2c(cc1-3)OCO2.[Cl-] | 32 µg/mL
COc1ccc2cc3[n+](cc2c1OC)CCc1cc2c(cc1-3)OCO2 [BERBERINE] | 128 µg/mL

Test system: Shigella dysenteriae
Experiment: Antibacterial activity against Shigella dysenteriae by two fold serial dilution method
Type: functional

SMILES | MIC
Fc1cccc(CN(CCBr)CCn2cncn2)c1 | 64 µg/mL (≈ 196 µM)
COc1ccc2cc3[n+](cc2c1OCCN(CCn1cncn1)Cc1ccccc1F)CCc1cc2c(cc1-3)OCO2.[Cl-] | 4 µg/mL
COc1ccc2cc3[n+](cc2c1OCCN(CCn1cncn1)Cc1ccc(Cl)cc1Cl)CCc1cc2c(cc1-3)OCO2.[Cl-] | 8 µg/mL
Fc1ccc(CN(CCBr)CCn2cncn2)c(F)c1 | 64 µg/mL (≈ 185 µM)
COc1ccc2cc3[n+](cc2c1OCCN(CCn1cncn1)Cc1ccc(Cl)c(Cl)c1)CCc1cc2c(cc1-3)OCO2.[Cl-] | 16 µg/mL
Clc1ccccc1CN(CCBr)CCn1cncn1 | 256 µg/mL (≈ 745 µM)
COc1ccc2cc3[n+](cc2c1OCCN(CCn1cncn1)Cc1cccc(Cl)c1)CCc1cc2c(cc1-3)OCO2.[Cl-] | 32 µg/mL
COc1ccc2cc3[n+](cc2c1OCCN(CCn1cncn1)Cc1ccc(Cl)cc1)CCc1cc2c(cc1-3)OCO2.[Cl-] | 8 µg/mL
COc1ccc2cc3[n+](cc2c1OC)CCc1cc2c(cc1-3)OCO2 [BERBERINE] | 256 µg/mL

Test system: Pseudomonas aeruginosa
Experiment: Antibacterial activity against Pseudomonas aeruginosa by two fold serial dilution method
Type: functional

SMILES | MIC
Fc1cccc(CN(CCBr)CCn2cncn2)c1 | 128 µg/mL (≈ 391 µM)
COc1ccc2cc3[n+](cc2c1OCCN(CCn1cncn1)Cc1ccccc1F)CCc1cc2c(cc1-3)OCO2.[Cl-] | 8 µg/mL
COc1ccc2cc3[n+](cc2c1OCCN(CCn1cncn1)Cc1ccc(Cl)cc1Cl)CCc1cc2c(cc1-3)OCO2.[Cl-] | 16 µg/mL
Fc1ccc(CN(CCBr)CCn2cncn2)c(F)c1 | 128 µg/mL (≈ 371 µM)
COc1ccc2cc3[n+](cc2c1OCCN(CCn1cncn1)Cc1ccc(Cl)c(Cl)c1)CCc1cc2c(cc1-3)OCO2.[Cl-] | 16 µg/mL
Clc1ccccc1CN(CCBr)CCn1cncn1 | 128 µg/mL (≈ 372 µM)
COc1ccc2cc3[n+](cc2c1OCCN(CCn1cncn1)Cc1cccc(Cl)c1)CCc1cc2c(cc1-3)OCO2.[Cl-] | 32 µg/mL
COc1ccc2cc3[n+](cc2c1OCCN(CCn1cncn1)Cc1ccc(Cl)cc1)CCc1cc2c(cc1-3)OCO2.[Cl-] | 16 µg/mL
COc1ccc2cc3[n+](cc2c1OC)CCc1cc2c(cc1-3)OCO2 [BERBERINE] | 256 µg/mL

Test system: Staphylococcus aureus
Experiment: Antibacterial activity against methicillin-resistant Staphylococcus aureus N315 by two fold serial dilution method
Type: functional

SMILES | MIC
Fc1cccc(CN(CCBr)CCn2cncn2)c1 | 128 µg/mL (≈ 391 µM)
COc1ccc2cc3[n+](cc2c1OCCN(CCn1cncn1)Cc1ccccc1F)CCc1cc2c(cc1-3)OCO2.[Cl-] | 8 µg/mL
COc1ccc2cc3[n+](cc2c1OCCN(CCn1cncn1)Cc1ccc(Cl)cc1Cl)CCc1cc2c(cc1-3)OCO2.[Cl-] | 8 µg/mL
Fc1ccc(CN(CCBr)CCn2cncn2)c(F)c1 | 128 µg/mL (≈ 371 µM)
COc1ccc2cc3[n+](cc2c1OCCN(CCn1cncn1)Cc1ccc(Cl)c(Cl)c1)CCc1cc2c(cc1-3)OCO2.[Cl-] | 16 µg/mL
Clc1ccccc1CN(CCBr)CCn1cncn1 | 256 µg/mL (≈ 745 µM)
COc1ccc2cc3[n+](cc2c1OCCN(CCn1cncn1)Cc1cccc(Cl)c1)CCc1cc2c(cc1-3)OCO2.[Cl-] | 32 µg/mL
COc1ccc2cc3[n+](cc2c1OCCN(CCn1cncn1)Cc1ccc(Cl)cc1)CCc1cc2c(cc1-3)OCO2.[Cl-] | 16 µg/mL
COc1ccc2cc3[n+](cc2c1OC)CCc1cc2c(cc1-3)OCO2 [BERBERINE] | 128 µg/mL
